According to patent publication US20040220164A1, “Triaza compound immunoregulatory agents” (priority 2001, published 2004):
Converted amounts (≈) assume the structure as drawn.

Experiments:
CD4 [1] = target: T1, CD4 (Homo sapiens, UniProt P01730); assay: CD4 down-modulation, flow cytometry with FITC-conjugated anti-CD4 (SK3) mAb, SupT1 cells; assay type: cell-based; design: To study the effect of the CADA derivatives on surface CD4 antigen expression, MT-4 and SupT1 cells were incubated; endogenous in cells; host or cells: MT-4, SupT1, PBMC; conditions: day 4
Outline: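 MT-4 and SupT1 cells were exposed at 37 °C to 5-fold compound dilutions (50–0.08 μg/ml). On day 3 (MT-4) or day 4 (SupT1) they were stained with FITC anti-CD4 (SK3) for 30 min at 4 °C and analysed by flow cytometry. IC50 was derived from MFI as % of untreated control, after isotype subtraction.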

MT-4 cells = assay: Cytotoxicity assay (trypan blue exclusion, propidium iodide); assay type: cell-based, human
Procedure: (§1) Cytotoxicity Assay. Cellular toxicity of the compounds was measured by trypan blue exclusion and also by Propidium Iodide by flow cytometry after 3 or 4 days of incubation, in parallel with the CD4 antigen expression. The CC50 value of each CADA analog is the concentration (in μg/ml) required to reduce the viability of the cells by 50%.

SupT1 cells = assay: as above; assay type: cell-based, human
Procedure: as §1

HHV-7 (KHR strain) = assay: Anti-HHV-7 assay in SupT1 cells (antigen expression, flow cytometry, Example 3); assay type: cell-based; conditions: SupT1 cells
Outline: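 SupT1 cells pre-incubated 30 min at room temperature with five-fold compound dilutions, then infected with HHV-7. Every 2–3 days from day 4, half the medium and cells were replaced with compound-free medium. Once microscopic CPE appeared, HHV-7 antigen expression was measured by flow cytometry.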

CD4 [2] = target: T1, CD4; assay: CD4 down-modulation, flow cytometry with FITC-conjugated anti-CD4 (SK3) mAb, MT-4 cells; assay type: cell-based; design: To study the effect of the CADA derivatives on surface CD4 antigen expression, MT-4 and SupT1 cells were incubated; endogenous in cells; host or cells: MT-4, SupT1, PBMC
HIV-1 strain NL4.3 = assay: Anti-HIV-1 assay in MT-4 cells (p24 Ag ELISA, Example 3); assay type: cell-based; conditions: MT-4 cells
Outline: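 MT-4 cells infected with HIV-1 NL4.3 in presence of five-fold compound dilutions, incubated 3–5 days until strong viral CPE in untreated infected cells. Supernatant p24 core antigen measured by ELISA; IC50 is concentration giving 50% reduction in p24.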

C=C1CN(S(=O)(=O)c2ccc(C)cc2)CCCN(Cc2cccnc2)CCCN(S(=O)(=O)c2ccc(C)cc2)C1 [AS-N6P6]
IC50 CD4 (50% inhibition of extracellular CD4 expression) (CD4 [1]): 4.27 µg/mL
CC50 (50% cytotoxic concentration) (MT-4 cells): 21.4 µg/mL (≈ 36.7 µM)
CC50 (50% cytotoxic concentration) (SupT1 cells): >50 µg/mL
IC50 HHV-7 (50% reduction of HHV-7 antigen expression) (HHV-7 (KHR strain)): 1.50 µg/mL
IC50 CD4 (50% inhibition of extracellular CD4 expression) (CD4 [2]; MT-4 cells, day 3): 3.22 µg/mL
CD4 down-modulating activity, fold less active than CADA (CD4 [2]; compared to CADA, MT-4 cells (stated for some compounds)): 7 fold
IC50 HIV-1 (NL4.3), p24 Ag ELISA (HIV-1 strain NL4.3): 2.38 µg/mL (≈ 4.08 µM)
